According to PubChem BioAssay (NCI):
Values joined by “and” are separate entries in the source; they are usually repeats but may differ in a detail not shown here. Equal values may be shown once.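 Results reflect a 48-hour exposure of cells in 96-well plates to compound at five concentrations. The concentration for 50% growth inhibition is given as GI50. Definition used: TGI = concentration required for complete inhibition of growth.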

Legend:
Experiment in all cases: NCI anticancer screen, dose series, 48 h
ACHN renal = tested on: ACHN renal
CAKI-1 renal = tested on: CAKI-1 renal
HCT-116 colon = tested on: HCT-116 colon
IGROV1 ovarian = tested on: IGROV1 ovarian
NCI-H460 lung = tested on: NCI-H460 lung
OVCAR-4 ovarian = tested on: OVCAR-4 ovarian
RPMI-8226 leukemia = tested on: RPMI-8226 leukemia
SK-MEL-2 melanoma = tested on: SK-MEL-2 melanoma
SN12C renal = tested on: SN12C renal
SNB-75 CNS = tested on: SNB-75 CNS

SMILES | GI50 (ACHN renal) | TGI (ACHN renal) | GI50 (CAKI-1 renal) | TGI (CAKI-1 renal) | GI50 (HCT-116 colon) | TGI (HCT-116 colon) | GI50 (IGROV1 ovarian) | TGI (IGROV1 ovarian) | GI50 (NCI-H460 lung) | TGI (NCI-H460 lung) | GI50 (OVCAR-4 ovarian) | TGI (OVCAR-4 ovarian) | GI50 (RPMI-8226 leukemia) | TGI (RPMI-8226 leukemia) | GI50 (SK-MEL-2 melanoma) | TGI (SK-MEL-2 melanoma) | GI50 (SN12C renal) | TGI (SN12C renal) | GI50 (SNB-75 CNS) | TGI (SNB-75 CNS)
C=C(C(=O)OC)[C@@H]1C[C@@H](O)[C@]2(C)CC/C=C(\C)CCC[C@H](C)[C@H](O)C1O2 | 57.5 µM | > 100 µM | 45.5 µM | > 100 µM | 21.1 µM | 58 µM | 22.7 µM | 73.5 µM | 75.5 µM | > 100 µM | 78.8 µM | > 100 µM | 27.6 µM | 59 µM | 48.5 µM | > 100 µM | 77.9 µM | > 100 µM | > 100 µM | > 100 µM
COc1ccc(Cn2cc(Cn3c(=O)c(-c4nc5ccccc5[nH]4)cc4ccccc43)nn2)c(OC)c1OC | 0.476 µM and 0.68 µM | 1.67 µM and 4.17 µM | 0.35 µM and 0.396 µM | 1.47 µM and 3.92 µM | 0.094 µM and 0.0954 µM | 1.25 µM and 1.73 µM | 0.186 µM and 0.445 µM | 1.84 µM and 3.66 µM | 0.18 µM | 0.893 µM | 1.31 µM | > 100 µM | 0.129 µM | 1.15 µM | 0.676 µM | 2.21 µM | 0.217 µM and 0.426 µM | 50 µM and > 100 µM | 0.0354 µM | 0.432 µM
CN1CCN(c2cc(Nc3cc(C4CC4)[nH]n3)nc(Nc3ccc(CC(=O)NCc4cccc(F)c4)cc3)n2)CC1 | 2.01 µM | 10.6 µM | 0.823 µM | 4.74 µM | 0.211 µM | 6.87 µM | 0.237 µM | 2.97 µM | 0.536 µM | 3.68 µM | 1.55 µM | 22 µM | 2 µM | 6.52 µM | 1.99 µM | 9.32 µM | 0.756 µM | 14.4 µM | 0.168 µM | 0.778 µM
O=C(Nc1ccccc1F)c1ccc(NC2=C(Cl)C(=O)N(Cc3ccccc3)C2=O)cc1 | 15.1 µM | 28.4 µM | 1.7 µM | 3.25 µM | 8.4 µM | 20.6 µM | 1.16 µM | 2.94 µM | 6.6 µM | 19.3 µM | 11.1 µM | 23.1 µM | 1.83 µM | 3.92 µM | 6.84 µM | 18.4 µM | 1.98 µM | 7.93 µM | 16.5 µM | 30 µM
COc1ccc2sc3c(NCCCNCCO)nc4ccccc4c3c(=O)c2c1 | 1.63 µM | 2.99 µM | 1.57 µM | 2.99 µM | 1.59 µM | 3.03 µM | 1.33 µM | 2.85 µM | 1.51 µM | 2.96 µM | 1.94 µM | 4.09 µM | 1.71 µM | 3.86 µM | 2.08 µM | 4.07 µM | 1.6 µM | 3.12 µM | 1.82 µM | 3.34 µM
O=[N+]([O-])c1ccc2c(c1)S(=O)c1ccccc1-2 (stereo not given) | – | > 100 µM | – | > 100 µM | – | > 100 µM | – | > 100 µM | – | > 100 µM | – | > 100 µM | – | > 100 µM | – | > 100 µM | – | > 100 µM | – | > 100 µM
Oc1ccc(-c2nc3ccc4[nH]ncc4c3c3c2CCCC3)c2cccnc12 | 0.181 µM | 3.07 µM | 0.12 µM | 0.886 µM | 0.228 µM | 4.14 µM | 0.196 µM | 4.06 µM | 0.122 µM | 0.863 µM | 0.781 µM | 6.06 µM | 0.158 µM | 4.12 µM | 0.452 µM | 3.5 µM | 0.206 µM | 6.79 µM | 0.132 µM | 1.06 µM
Clc1ccc(-c2cn(-c3ccccc3)c(-c3ccccc3)n2)c(Cl)c1 | 2.22 µM | > 50 µM | 1.2 µM | 4.4 µM | 1.09 µM | 2.66 µM | 2.92 µM | > 44.8 µM | 1.09 µM | 2.39 µM | 0.884 µM | 1.81 µM | 4.93 µM | > 10.2 µM | > 50 µM | > 50 µM | 4.09 µM | > 30.1 µM | 0.864 µM | 2.2 µM
COc1cc2c3c(n(C)c(=O)c2cc1OC)-c1cc2c(cc1/C3=C\[C@@H](N)CCCCN)OCO2 | 2.46 µM | > 41.4 µM | 4.26 µM | > 75.1 µM | 0.329 µM | 14.4 µM | 2.24 µM | > 100 µM | 0.707 µM | > 82.9 µM | 1.26 µM | 99 µM | 2.57 µM | 35.2 µM | 13.2 µM | > 100 µM | 0.46 µM | 6.95 µM | 0.985 µM | > 41.3 µM
COC(=O)c1cc2c(cc1Cl)SC(N(N(C)C)S(=O)(=O)c1ccc(Cl)cc1)=NS2(=O)=O | 17.8 µM | 38.5 µM | 21.3 µM | 46.1 µM | 15.6 µM | 29 µM | 22.5 µM | 73.6 µM | 18.7 µM | 37.4 µM | 18.1 µM | 54.8 µM | 17.1 µM | 53.4 µM | 20.5 µM | 59 µM | 19.2 µM | 47.7 µM | 23.7 µM | 69.9 µM
